In patent publication US7105531B2, “Tricyclic protein kinase inhibitors” (WYETH, priority 1999, dated 2006):
Several values for one entry are separate records, joined by “and”; a condition that tells them apart may be missing. Equal values may be shown once.

Columns and labels:
[1] = target: T1, recombinant human MEK 1 (MAPKK) and recombinant human ERK2 (MAPK) (Homo sapiens, UniProt P28482+Q02750); experiment: Mitogen Activated Protein Kinase (MAPK) coupled Mek-Erk test procedure; assay type: biochemical
T1 construct: GST
Method: To evaluate inhibitors of the MAP (mitogen activated protein) kinase a two component coupled standard pharmacological test procedure, which measures phosphorylation of a serine/threonine residue in an appropriate sequence in the substrate in the presence and absence of a putative inhibitor, is used. Recombinant human MEK 1 (MAPKK) is first used to activate recombinant human ERK2 (MAPK) and the activated MAPK (ERK) is incubated with substrate (myelin basic protein peptide (MBPP) or Myc peptide) in the presence of ATP, Mg^+2 and radiolabeled ^33P ATP. The phosphorylated peptide is captured on a P 81 phosphocellulose filter (paper filter or embedded in microtiter plate) washed and counted by scintillation methods.
The peptide substrates used in the assay are MBPP, peptide substrate ([…]), or synthetic Myc substrate, ([…].5 TFA). The recombinant enzymes used are prepared as GST fusion proteins of human ERK 2 and human MEK 1. Inhibitor samples are prepared as 10× stocks in 10% DMSO and an appropriate aliquot is used to deliver either 10 ug/ml for a single point screening dose or 100 to 0.0001 uM final concentration for a dose response curve. Final DMSO concentrations are less than or equal to 1%.
The reaction is run as follows in 50 mM Tris kinase buffer, pH 7.4 in a reaction volume of 50 ul. The appropriate volume of kinase buffer and inhibitor sample is added to the tube. Appropriate dilution of enzyme is delivered to give 2–5 ug recombinant MAPK (Erk) per tube. The inhibitor is incubated with MAPK (Erk) for 30 min at 0 deg. C. Recombinant Mek (MAPKK) (0.5–2.5 ug) or fully activated Mek (0.05–0.1 units) is added to activate the Erk and incubated for 30 min at 30° C. Then substrate and γ^33P ATP are added to give a final concentration of 0.5–1 mM MBPP or 250–500 uM Myc; 0.2–0.5 uCi gamma P 33 ATP/tube; 50 μM ATP final concentration. Samples are incubated at 30° C. for 30 minutes and the reaction is stopped by adding 25 μl of ice cold 10% trichloroacetic acid (TCA). After samples are chilled on ice for 30 min. 20 μl of sample is transferred onto P 81 phosphocellulose filter. Filter papers are washed 2 times with a large volume of 1% acetic acid, then 2 times with water. The filters are briefly air dried before addition of scintillant and samples are counted in the appropriate scintillation counter set up for reading ^33P isotope. Samples include a positive control (activated enzyme plus substrate); a no enzyme control; a no substrate control; samples with different concentrations of putative inhibitor, and samples with reference inhibitors (other active compounds or non-specific inhibitors such as staurosporine or K252 B).
The raw data is captured as cpm. Sample replicates are averaged and corrected for background count. Mean cpm data is tabulated by group and % inhibition by a test compound is calculated as (corrected cpm control−corrected. cpm sample/control)×100=% inhibition).

[2] = target: T2, Rat2 fibroblasts transformed with v-Src/Hu c-Src fusion gene (Homo sapiens, UniProt P12931, cells depend on it, form not given); experiment: Anchorage independent Src-transformed fibroblast proliferation test procedure; assay type: cell-based, rat; details: for GI50: rat2 fibroblasts transformed with v-src/hu c-src fusion gene, read-out: Src TF prolif IC50
T2 construct: fused on or other part: The v-Src frame of Rous sarcoma virus: everything outside the catalytic domain, namely the N-terminal unique/SH3/SH2 part; Candidates are Prague C (P00526), then Schmidt-Ruppin A (P00524)
Source text: Anchorage Independent Src-transformed Fibroblast Proliferation Test Procedure: Rat2 fibroblasts stably transformed with a plasmid containing CMV promotor controlled v-Src/Hu c-Src fusion gene in which the catalytic domain of human c-Src is inserted in place of the v-Src catalytic domain in the v-Src gene are used for the measurement of src dependent suspension growth.

T2 sequence (P12931 whole entry, change not shown, the tested form may be a part): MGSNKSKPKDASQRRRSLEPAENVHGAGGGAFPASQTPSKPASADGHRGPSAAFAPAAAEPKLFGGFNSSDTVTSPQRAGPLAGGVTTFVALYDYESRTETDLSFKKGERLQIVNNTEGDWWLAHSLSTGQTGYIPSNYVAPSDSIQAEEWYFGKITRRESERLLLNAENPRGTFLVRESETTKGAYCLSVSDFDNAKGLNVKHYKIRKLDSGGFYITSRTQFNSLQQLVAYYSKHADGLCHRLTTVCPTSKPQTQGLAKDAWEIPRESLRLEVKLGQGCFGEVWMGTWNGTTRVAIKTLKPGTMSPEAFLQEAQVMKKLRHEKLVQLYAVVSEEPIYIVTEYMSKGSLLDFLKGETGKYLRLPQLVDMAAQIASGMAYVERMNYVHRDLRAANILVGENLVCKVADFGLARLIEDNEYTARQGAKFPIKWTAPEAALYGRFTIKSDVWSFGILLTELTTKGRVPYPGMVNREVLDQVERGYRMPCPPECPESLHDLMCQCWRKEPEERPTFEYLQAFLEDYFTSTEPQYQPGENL

| melting point | Src TF prolif % Inh ([2]; @ dose 0.22 μM) [%] | Src TF prolif % Inh ([2]; @ dose 10 μM) [%] | GI50 [2] [µM] | Structure (SMILES) | Mek-Erk IC50 [1] [µM] |
| --- | --- | --- | --- | --- | --- |
| > 260 °C | 50 |  |  | COc1cc(Nc2c(C#N)cnc3c2C=C2N=CN=C2C3)cc(OC)c1OC [Example 42, 8-(3,4,5-Trimethoxyanilino)imidazo[4,5-g]quinoline-7-carbonitrile] |  |
| 246 to 248 °C |  | 0 |  | COc1cc(Nc2c(C#N)cnc3cc4c(cc23)ncn4CCN2CCOCC2)c(C)cc1Cl [Example 57, 8-(4-Chloro-5-methoxy-2-methylanilino)-3-[2-(4-morpholinyl)ethyl]-3H-imidazo[4,5-g]quinoline-7-carbonitrile] |  |
|  |  |  | 0.015 | COc1cc(Nc2c(C#N)cnc3cc4cc(OCCN5CCOCC5)c(OC)cc4cc23)c(Cl)cc1Cl [Example 129, 4-(2,4-dichloro-5-methoxyanilino)-7-methoxy-8-[2-(4-morpholinyl)ethoxy]benzo[g]quinoline-3-carbonitrile] |  |
| 205 to 208 °C |  |  | 0.038 | COc1cc(Nc2c(C#N)cnc3cc4cc(OCCCN5CCOCC5)c(OC)cc4cc23)c(Cl)cc1Cl [Example 157, 4-(2,4-Dichloro-5-methoxyphenylamino)-7-methoxy-8-(3-morpholin-4-yl-propoxy)benzo[g]quinoline-3-carbonitrile] |  |
|  |  |  | 0.067 | COc1cc(Nc2c(C#N)cnc3cc4cc(OCCn5nccn5)c(OC)cc4cc23)c(Cl)cc1Cl [Example 158, 4-(2,4-Dichloro-5-methoxyphenylamino)-7-methoxy-8-(2-[1,2,3]triazol-2-yl-ethoxy)benzo[g]quinoline-3-carbonitrile] |  |
| 245 °C (dec.) |  |  | 0.073 | COc1cc(Nc2c(C#N)cnc3cc4cc(OCCn5ccnn5)c(OC)cc4cc23)c(Cl)cc1Cl [Example 159, 4-(2,4-Dichloro-5-methoxyphenylamino)-7-methoxy-8-(2-[1,2,3]triazol-1-yl-ethoxy)benzo[g]quinoline-3-carbonitrile] |  |
| 297 °C (dec.) |  |  | > 10 | COc1cc(Nc2c(C#N)cnc3nc4cc(OC)c(OC)cc4cc23)c(Cl)cc1Cl [Example 165, 4-(2,4-Dichloro-5-methoxyanilino)-7,8-dimethoxybenzo[b][1,8]naphthyridine-3-carbonitrile] |  |
| 227 to 230 °C (dec.) |  |  | 1.87 | COc1cc(Nc2c(C#N)cnc3nc4cc(OCCCl)c(OC)cc4cc23)c(Cl)cc1Cl [Example 172, 8-(2-Chloroethoxy)-4-(2,4-dichloro-5-methoxyanilino)-7-methoxybenzo[b][1,8]naphthyridine-3-carbonitrile] |  |
| 242 to 244 °C (dec.) |  |  | 3.74 | COc1cc(Nc2c(C#N)cnc3nc4cc(OCCN5CCOCC5)c(OC)cc4cc23)c(Cl)cc1Cl [Example 173, 4-(2,4-Dichloro-5-methoxyanilino)-7-methoxy-8-[2-(4-morpholinyl)ethoxy]benzo[b][1,8]naphthyridine-3-carbonitrile] |  |
| 195 to 196 °C |  |  | 0.17 | CCOc1cc2cc3ncc(C#N)c(Nc4cc(OC)c(Cl)cc4C)c3cc2cc1OCCN1CCOCC1 [Example 190, 4-(4-Chloro-5-methoxy-2-methylanilino)-8-ethoxy-7-[2-(4-morpholinyl)ethoxy]benzo[g]quinoline-3-carbonitrile] |  |
| 201 to 203 °C |  |  | 0.022 | CCOc1cc2cc3c(Nc4cc(OC)c(Cl)cc4C)c(C#N)cnc3cc2cc1OCCN1CCOCC1 [Example 191, 4-(4-Chloro-5-methoxy-2-methylanilino)-7-ethoxy-8-[2-(4-morpholinyl)ethoxy]benzo[g]quinoline-3-carbonitrile] |  |
| 168 to 170 °C |  |  | > 10 | CCOc1cc2cc3c(Nc4cc(OC)c(Cl)cc4C)c(C#N)cnc3cc2cc1OCCN(CC(N)=O)CC(N)=O [Example 194, 2-(Carbamoylmethyl-{2-[4-(4-chloro-5-methoxy-2-methylphenylamino)-3-cyano-7-ethoxybenzo[g]quinolin-8-yloxy]-ethyl}-amino)-acetamide] |  |
| 170 to 173 °C |  |  | 0.175 | COc1cc(Nc2c(C#N)cnc3cc4cc(OC)c(OCCN5CCN(C)CC5)cc4cc23)c(Cl)cc1F [Example 201, 4-(2-Chloro-4-fluoro-5-methoxyanilino)-8-methoxy-7-[2-(4-methyl-1-piperazinyl)ethoxy]benzo[g]quinoline-3-carbonitrile] |  |
| 218 to 235 °C and 220 to 227 °C |  |  | 0.068 | COc1cc(Nc2c(C#N)cnc3cc4cc(OC)c(OCCN5CCN(C)CC5)cc4cc23)c(Cl)cc1C [Example 202, 4-(2-Chloro-5-methoxy-4-methylanilino)-8-methoxy-7-[2-(4-methyl 1-piperazinyl)ethoxy]benzo[g]quinoline-3-carbonitrile] |  |
| 205 to 235 °C |  |  | 0.929 | COc1cc(Nc2c(C#N)cnc3cc4cc(OC)c(OCCN5CCC(O)CC5)cc4cc23)c(Cl)cc1C [Example 207, 4-(2-Chloro-5-methoxy-4-methylanilino)-8-methoxy-7-[2-(4-hydroxy-1-piperidinyl)ethoxy]benzo[g]quinoline-3-carbonitrile] |  |
| 204 to 214 °C |  |  | 0.309 | COc1cc(Nc2c(C#N)cnc3cc4cc(OC)c(OCCN5CCOCC5)cc4cc23)c(Cl)cc1F [Example 209, 4-(2-Chloro-4-fluoro-5-methoxyanilino)-8-methoxy-7-[2-(4-morpholinyl)ethoxy]benzo[g]quinoline-3-carbonitrile] |  |
| 197 to 205 °C |  |  | 0.128 | COc1cc(Nc2c(C#N)cnc3cc4cc(OCCN5CCN(C)CC5)c(OC)cc4cc23)c(Cl)cc1F [Example 211, 4-(2-Chloro-4-fluoro-5-methoxyanilino)-7-methoxy-8-[2-(4-methyl-1-piperazinyl)ethoxy]benzo[g]quinoline-3-carbonitrile] |  |
| 205 to 210 °C |  |  | > 10 | COc1cc2cc3ncc(C#N)c(Nc4ccc(F)c(Cl)c4)c3cc2cc1OCCN1CCOCC1 [Example 212, 4-(3-Chloro-4-fluoroanilino)-8-methoxy-7-[2-(4-morpholinyl)ethoxy]benzo[g]quinoline-3-carbonitrile] |  |
| 248 to 250 °C (dec.) |  |  |  | COc1cc(Nc2c(C#N)cnc3cc4cc(OCc5ccccc5)c(OC)cc4cc23)c(Cl)cc1F [Example 219, 8-(Benzyloxy)-4-[(2-chloro-4-fluoro-5-methoxyphenyl)amino]-7-methoxybenzo[g]quinoline-3-carbonitrile] |  |
| 239 to 242 °C (dec.) |  |  |  | COc1cc2cc3c(Nc4cc(OC)c(F)cc4Cl)c(C#N)cnc3cc2cc1O [Example 220, 4-[(2-Chloro-4-fluoro-5-methoxyphenyl)amino]-8-hydroxy-7-methoxybenzo[g]quinoline-3-carbonitrile] |  |

| Structure (SMILES) | melting point | Src TF prolif % Inh ([2]; @ dose 0.22 μM) [%] | Src TF prolif % Inh ([2]; @ dose 10 μM) [%] | GI50 [2] [µM] | Mek-Erk IC50 [1] [µM] |
| --- | --- | --- | --- | --- | --- |
| N#Cc1cnc2cc3ccccc3cc2c1Nc1ccc(Oc2ccccc2)cc1 [Example 3, 4-(4-Phenoxyanilino)benzo[g]quinoline-3-carbonitrile] | 250 to 251 °C |  |  |  | 0.2 |
| N#Cc1cnc2c(c1Nc1ccc(Oc3ccccc3)cc1)C=C1N=CN=C1C2 [Example 44, 8-(4-Phenoxyanilino)imidazo[4,5-g]quinoline-7-carbonitrile] | > 270 °C |  |  |  | 0.03 |
| N#Cc1cnc2c(sc3ccccc32)c1Nc1ccc(Oc2ccccc2)cc1 [Example 69, 4-(4-Phenoxyphenylamino)benzo[4,5]thieno[3,2-b]pyridine-3-carbonitrile] | 230 to 233 °C |  |  |  | 3 |
